The NIST ThermoML archive (doi:10.1021/je700345b)
“And” between values parts separate entries of the source, which are not always exact repeats. Equal entries are not always repeated. Numbers after ± are expanded uncertainties.

Assay: wn = mass fraction of the nth substance listed
Conditions: Liquid, w2 = 0.5

## CC(F)(F)F [1,1,1-trifluoroethane] + FC(F)C(F)(F)F
253.26 K, 2000 kPa
  viscosity: 0.237 ± 0.0053 mPa·s
253.26 K, 2010 kPa
  viscosity: 0.2374 ± 0.0053 mPa·s
253.26 K, 2090 kPa
  viscosity: 0.2377 ± 0.0053 mPa·s
253.26 K, 2170 kPa
  viscosity: 0.2378 ± 0.0053 mPa·s
253.26 K, 2180 kPa
  viscosity: 0.2371 ± 0.0053 mPa·s
253.26 K, 2220 kPa
  viscosity: 0.2379 ± 0.0053 mPa·s
253.26 K, 3370 kPa
  viscosity: 0.2426 ± 0.0054 mPa·s
253.26 K, 3380 kPa
  viscosity: 0.2427 ± 0.0054 mPa·s
253.26 K, 3390 kPa
  viscosity: 0.2427 ± 0.0054 mPa·s
253.26 K, 3410 kPa
  viscosity: 0.2425 ± 0.0054 mPa·s
253.26 K, 4930 kPa
  viscosity: 0.2479 ± 0.0055 mPa·s
253.26 K, 4960 kPa
  viscosity: 0.2479 ± 0.0055 mPa·s
253.26 K, 4970 kPa
  viscosity: 0.248 ± 0.0055 mPa·s
253.26 K, 4990 kPa
  viscosity: 0.2482 ± 0.0055 mPa·s
253.26 K, 5020 kPa
  viscosity: 0.2483 ± 0.0055 mPa·s
253.26 K, 5070 kPa
  viscosity: 0.2487 ± 0.0055 mPa·s
253.26 K, 7440 kPa
  viscosity: 0.2574 ± 0.0057 mPa·s
253.26 K, 7500 kPa
  viscosity: 0.2576 ± 0.0057 mPa·s
253.26 K, 7620 kPa
  viscosity: 0.258 ± 0.0057 mPa·s
253.26 K, 7720 kPa
  viscosity: 0.2587 ± 0.0057 mPa·s
263.23 K, 1990 kPa
  viscosity: 0.2076 ± 0.0047 mPa·s
263.23 K, 2020 kPa
  viscosity: 0.2074 ± 0.0047 mPa·s
263.23 K, 2070 kPa
  viscosity: 0.2081 ± 0.0047 mPa·s
263.23 K, 2120 kPa
  viscosity: 0.2077 ± 0.0049 mPa·s
263.23 K, 3660 kPa
  viscosity: 0.2139 ± 0.0048 mPa·s
263.23 K, 3670 kPa
  viscosity: 0.2137 ± 0.0048 mPa·s and 0.2139 ± 0.0048 mPa·s
263.23 K, 3680 kPa
  viscosity: 0.2138 ± 0.0048 mPa·s and 0.2137 ± 0.0048 mPa·s
263.23 K, 3720 kPa
  viscosity: 0.214 ± 0.0048 mPa·s
263.23 K, 3780 kPa
  viscosity: 0.214 ± 0.0048 mPa·s
263.23 K, 4690 kPa
  viscosity: 0.2177 ± 0.0049 mPa·s
263.23 K, 4990 kPa
  viscosity: 0.2192 ± 0.005 mPa·s
263.23 K, 5010 kPa
  viscosity: 0.2195 ± 0.005 mPa·s
263.23 K, 7000 kPa
  viscosity: 0.2258 ± 0.005 mPa·s
263.23 K, 7050 kPa
  viscosity: 0.2257 ± 0.0051 mPa·s
263.23 K, 7190 kPa
  viscosity: 0.2262 ± 0.0052 mPa·s
263.23 K, 7220 kPa
  viscosity: 0.227 ± 0.0052 mPa·s
273.24 K, 2150 kPa
  viscosity: 0.1827 ± 0.0043 mPa·s
273.24 K, 2160 kPa
  viscosity: 0.1825 ± 0.0042 mPa·s
273.24 K, 2190 kPa
  viscosity: 0.1826 ± 0.0042 mPa·s and 0.1823 ± 0.0042 mPa·s
273.24 K, 2230 kPa
  viscosity: 0.1829 ± 0.0043 mPa·s
273.24 K, 2260 kPa
  viscosity: 0.1829 ± 0.0042 mPa·s
273.24 K, 2270 kPa
  viscosity: 0.1829 ± 0.0042 mPa·s
273.24 K, 3450 kPa
  viscosity: 0.1878 ± 0.0043 mPa·s and 0.1876 ± 0.0043 mPa·s
273.24 K, 3470 kPa
  viscosity: 0.1877 ± 0.0043 mPa·s
273.24 K, 3480 kPa
  viscosity: 0.1873 ± 0.0043 mPa·s
273.24 K, 3500 kPa
  viscosity: 0.1878 ± 0.0043 mPa·s
273.24 K, 5030 kPa
  viscosity: 0.1923 ± 0.0044 mPa·s
273.24 K, 5040 kPa
  viscosity: 0.1925 ± 0.0044 mPa·s
273.24 K, 5060 kPa
  viscosity: 0.1925 ± 0.0044 mPa·s
273.24 K, 7360 kPa
  viscosity: 0.2011 ± 0.0046 mPa·s
273.24 K, 7450 kPa
  viscosity: 0.2008 ± 0.0046 mPa·s
273.24 K, 7520 kPa
  viscosity: 0.2015 ± 0.0046 mPa·s
273.24 K, 9710 kPa
  viscosity: 0.2103 ± 0.0048 mPa·s
273.24 K, 9880 kPa
  viscosity: 0.2106 ± 0.0048 mPa·s and 0.2104 ± 0.0048 mPa·s
283.34 K, 2000 kPa
  viscosity: 0.1592 ± 0.0038 mPa·s
283.34 K, 2060 kPa
  viscosity: 0.1592 ± 0.0038 mPa·s
283.34 K, 2120 kPa
  viscosity: 0.1591 ± 0.0038 mPa·s
283.34 K, 2160 kPa
  viscosity: 0.1591 ± 0.0038 mPa·s
283.34 K, 2220 kPa
  viscosity: 0.1593 ± 0.0038 mPa·s
283.34 K, 2230 kPa
  viscosity: 0.1592 ± 0.004 mPa·s and 0.1596 ± 0.0039 mPa·s
283.34 K, 2250 kPa
  viscosity: 0.1596 ± 0.0039 mPa·s
283.34 K, 2260 kPa
  viscosity: 0.1595 ± 0.0039 mPa·s
283.34 K, 2270 kPa
  viscosity: 0.1597 ± 0.0039 mPa·s
283.34 K, 3720 kPa
  viscosity: 0.165 ± 0.0039 mPa·s
283.34 K, 3770 kPa
  viscosity: 0.1651 ± 0.0039 mPa·s and 0.1654 ± 0.0039 mPa·s
283.34 K, 3820 kPa
  viscosity: 0.1654 ± 0.0039 mPa·s
283.34 K, 3860 kPa
  viscosity: 0.1655 ± 0.0039 mPa·s
283.34 K, 3880 kPa
  viscosity: 0.1657 ± 0.004 mPa·s
283.34 K, 4970 kPa
  viscosity: 0.1693 ± 0.004 mPa·s
283.34 K, 5000 kPa
  viscosity: 0.1693 ± 0.004 mPa·s
283.34 K, 5030 kPa
  viscosity: 0.1696 ± 0.004 mPa·s
283.34 K, 5040 kPa
  viscosity: 0.1695 ± 0.004 mPa·s
283.34 K, 7600 kPa
  viscosity: 0.178 ± 0.0042 mPa·s
283.34 K, 7640 kPa
  viscosity: 0.1783 ± 0.0042 mPa·s
283.34 K, 7680 kPa
  viscosity: 0.1784 ± 0.0042 mPa·s
283.34 K, 9750 kPa
  viscosity: 0.1851 ± 0.0046 mPa·s
283.34 K, 9860 kPa
  viscosity: 0.1854 ± 0.0047 mPa·s
283.34 K, 9900 kPa
  viscosity: 0.1857 ± 0.0045 mPa·s
283.34 K, 9920 kPa
  viscosity: 0.1857 ± 0.0045 mPa·s
283.34 K, 9930 kPa
  viscosity: 0.1856 ± 0.0044 mPa·s
293.33 K, 1920 kPa
  viscosity: 0.1394 ± 0.0035 mPa·s
293.33 K, 1940 kPa
  viscosity: 0.1392 ± 0.0035 mPa·s
293.33 K, 1970 kPa
  viscosity: 0.1396 ± 0.0035 mPa·s
293.33 K, 2020 kPa
  viscosity: 0.1394 ± 0.0035 mPa·s
293.33 K, 3570 kPa
  viscosity: 0.145 ± 0.0036 mPa·s
293.33 K, 3690 kPa
  viscosity: 0.1454 ± 0.0036 mPa·s
293.33 K, 3720 kPa
  viscosity: 0.1455 ± 0.0036 mPa·s
293.33 K, 3750 kPa
  viscosity: 0.1457 ± 0.0036 mPa·s
293.33 K, 4910 kPa
  viscosity: 0.1503 ± 0.0037 mPa·s and 0.15 ± 0.0037 mPa·s
293.33 K, 5000 kPa
  viscosity: 0.1506 ± 0.0037 mPa·s
293.33 K, 5030 kPa
  viscosity: 0.1506 ± 0.0037 mPa·s
293.33 K, 7510 kPa
  viscosity: 0.1585 ± 0.0038 mPa·s
293.33 K, 7540 kPa
  viscosity: 0.1584 ± 0.0038 mPa·s
293.33 K, 7560 kPa
  viscosity: 0.1584 ± 0.0038 mPa·s
293.33 K, 9770 kPa
  viscosity: 0.1667 ± 0.0039 mPa·s
293.33 K, 9810 kPa
  viscosity: 0.1669 ± 0.004 mPa·s
293.33 K, 9850 kPa
  viscosity: 0.1666 ± 0.004 mPa·s
293.33 K, 9880 kPa
  viscosity: 0.1669 ± 0.004 mPa·s
293.33 K, 9930 kPa
  viscosity: 0.1672 ± 0.004 mPa·s
